Consider six molecules from PMC11127902, “Rescuing tri-heteromeric NMDA receptor function: the potential of pregnenolone-sulfate in loss-of-function GRIN2B variants” (Cellular and Molecular Life Sciences: CMLS, 2024).

One experiment has as its system GABAA receptors. On the set-up: method as in PMID 24174662. The following applies: cited from earlier work.
Another experiment concerns all NMDAR-subtypes. On the set-up: method as in PMID 24174662. The conditions noted are these: cited from earlier work.
Experiment [1] has as its system synaptic NMDARs in cultured hippocampal neurons. As to the kind of experiment: Fraction of extrasynaptic NMDARs with MK-801, hippocampal neurons. The experiment is classed as cell-based, rat. The conditions noted are these: 1 μM MK-801 10 min, 100 μM NMDA. As to the method:
Evaluation of the fraction of extrasynaptic NMDARs was done as previously described. Briefly, neurons were initially perfused with extracellular solution (see above) supplemented with 100 μM of NMDA to assess the total (synaptic and extrasynaptic) NMDAR-dependent current. Subsequently, the 100 μM of NMDA was thoroughly washed for 2 min (to refrain from activation of NMDAR by remaining NMDA), then neurons were perfused with the extracellular solution supplemented with 1 μM MK-801 for 10 min to exclusively block synaptic receptors (which are activated by action-potential independent miniature neurotransmission). Extrasynaptic NMDAR-dependent currents were then measured by washing the cells from excess MK-801 for 2 min followed by a second application of 100 μM NMDA. Evaluation of the fraction of the extrasynaptic NMDARs was done by dividing the maximal current remaining after MK-801 application by the current obtained before the MK-801 treatment.

The subject of experiment [2] is GluN2B-G689C and GluN2B-G689S variant receptors. On the set-up: method as in PMID 34212862, PMID 37369021. The following applies: cited from earlier work.
In experiment [3] the test system is non-tagged purely di-heteromeric GluN2B-G689C. The following applies: purely variant di-heteromers, previous observations; cited from earlier work.
Experiment [4] addresses T1, GluN2A-wt-containing tri-heteromeric receptors (GluN2B wt or variants) (Rattus norvegicus, UniProt P35439+Q00959+Q00960, A876H/F846L/G856D/H848F/K857R/M851T/M860L/Q845K/V861L).
T1 construct: expressed in transfected cells; host or cells: Xenopus laevis oocytes, mRNA injection
As to the kind of experiment: TEVC in Xenopus oocytes, all tri-heteromers. The class given is cell-based. The source says:
(§1) Aliquots were thawed before each experiment.

The target in experiment [5] is Tri-heteromeric GluN2A-wt/GluN2B-wt (Rattus norvegicus, UniProt P35439+Q00959+Q00960, A876H/F846L/G856D/H848F/K857R/M851T/M860L/Q845K/V861L). As to the kind of experiment: TEVC in Xenopus oocytes. The conditions noted are these: 5 mM glutamate.
Description: (§2) Two electrode voltage clamp (TEVC) recordings were carried out 24–72 h after mRNA injections, as previously described [17, 37]. We use a commercial amplifier (Warner Instruments, USA) and Digitizer (Digidata-1550B; Molecular Devices, USA), controlled by the pClamp10 software (Molecular Devices, USA). Electrode were made by pulling glass capillaries (Narishige, Japan) filled with 3 M KCl, into which we inserted chlorinated silver wires. […] For hERG channel recordings, oocytes were clamped at (− 60) mV for 1 s, followed by a voltage jump to 20 mV for 4 s, and an additional voltage jump to (− 50) mV for 6 s and return to baseline voltage (see Supplementary. 6f), as previously described [53].
(§3) When assessing potentiation by PS, all other solutions also included equal amounts of the DMSO carrier (0.2%).
Electrophysiology data were analyzed by Clampfit 11.2 (Molecular Devices, USA), plotted using GraphPad 8 or SigmaPlot 11(Systat software, Inc.). […] In all TEVC recordings in oocytes, the responses were normalized to current amplitude obtained from that individual cell. […] All data are shown as mean ± SEM. In all experiments N indicates the number of independent experiments, whereas n indicates the number of cells recorded. In each experiment, data underwent normality test prior to statistical assessment. Normally distributed data were assessed for significance by using paired t-test or one-way ANOVA for multiple group comparison and post hoc Tukey test or Dunnett's test. Similarly, in the case of non-normally distributed data significance was assessed by Mann Whitney test or Kruskal–Wallis ANOVA on ranks test followed by Dunn’s multiple comparison post hoc; n.s., non-significant; *p < 0.05; **p < 0.01; ***p < 0.001. […] Leak expression was evaluated by normalizing the maximal current (Imax) of each ER-retained NMDAR composition to Imax of control group (which was recorded in all experiments). […]
Experiment [6] relates to non-tagged purely di-heteromeric GluN2B-G689S. The conditions noted are these: purely variant di-heteromers, previous observations; cited from earlier work.
Experiment [7] deals with T2, Tri-heteromeric GluN2A-wt/GluN2B-G689C (Rattus norvegicus, UniProt P35439+Q00959+Q00960, A876H/F846L/G689C/G856D/H848F/K857R/M851T/M860L/Q845K/V861L).
T2 construct: expressed in transfected cells; host or cells: Xenopus laevis oocytes, mRNA injection
The experiment is classed as cell-based. The following applies: 5 mM glutamate.
Source text: as §1

In experiment [8] the target is T3, Tri-heteromeric GluN2A-wt/GluN2B-G689S (Rattus norvegicus, UniProt P35439+Q00959+Q00960, A876H/F846L/G689S/G856D/H848F/K857R/M851T/M860L/Q845K/V861L).
T3 construct: expressed in transfected cells; host or cells: Xenopus laevis oocytes, mRNA injection
The experiment is classed as cell-based. The conditions noted are these: 5 mM glutamate.
Source text: as §1

Experiment [9] addresses T4, Purely di-heteromeric GluN2B-wt (GluN1-1a-wt + GluN2B-wt-C1/C2) (Rattus norvegicus, UniProt P35439+Q00959+Q00960, A876H/F846L/G856D/H848F/K857R/M851T/M860L/Q845K/V861L).
T4 construct: expressed in transfected cells; host or cells: Xenopus laevis oocytes, mRNA injection
As to the kind of experiment: TEVC in Xenopus oocytes. The conditions noted are these: 5 mM glutamate. The experiment is classed as cell-based.
Source text: as §1

The target in experiment [10] is T5, Mixed di-heteromeric GluN2B-wt/GluN2B-G689S (Rattus norvegicus, UniProt P35439+Q00960, G689S).
T5 construct: expressed in transfected cells; host or cells: Xenopus laevis oocytes, mRNA injection
As to the kind of experiment: TEVC in Xenopus oocytes. The experiment is classed as cell-based. The conditions noted are these: 5 mM glutamate.
Source text: as §1

Experiment [11] addresses Mixed di-heteromeric GluN2B-wt/GluN2B-G689C (Rattus norvegicus, UniProt P35439+Q00960, G689C). As to the kind of experiment: TEVC in Xenopus oocytes. The following applies: 5 mM glutamate.
Description: as §2, §3
Electrophysiology data were analyzed by Clampfit 11.2 (Molecular Devices, USA), plotted using GraphPad 8 or SigmaPlot 11(Systat software, Inc.). […] In all TEVC recordings in oocytes, the responses were normalized to current amplitude obtained from that individual cell. […] All data are shown as mean ± SEM. In all experiments N indicates the number of independent experiments, whereas n indicates the number of cells recorded. In each experiment, data underwent normality test prior to statistical assessment. Normally distributed data were assessed for significance by using paired t-test or one-way ANOVA for multiple group comparison and post hoc Tukey test or Dunnett's test. Similarly, in the case of non-normally distributed data significance was assessed by Mann Whitney test or Kruskal–Wallis ANOVA on ranks test followed by Dunn’s multiple comparison post hoc; n.s., non-significant; *p < 0.05; **p < 0.01; ***p < 0.001. […] Leak expression was evaluated by normalizing the maximal current (Imax) of each ER-retained NMDAR composition to Imax of control group (which was recorded in all experiments). Estimation of activation time constant (τ) for potentiated currents by PS, was performed by fitting PS- potentiated currents with a standard single-exponential function, from which we extracted the time constant (τ).
Experiment [12] relates to GluN2A-containing di-heteromers. On the set-up: method as in PMID 29682629. The following applies: 2.5 μM ifenprodil; cited from earlier work.
A further experiment has as its system GluN2B di-heteromers. On the set-up: method as in PMID 29682629. The conditions noted are these: 2.5 μM ifenprodil; cited from earlier work.
In experiment [13] the test system is tri-heteromers (GluN2A/GluN2B). On the set-up: method as in PMID 29682629. The conditions noted are these: 2.5 μM ifenprodil; cited from earlier work.
Experiment [14] deals with di- or tri-heteromeric NMDA receptors (Rattus norvegicus, UniProt P35439+Q00959+Q00960, A876H/F846L/G856D/H848F/K857R/M851T/M860L/Q845K/V861L). The conditions noted are these: 0.1-10 μM olanzapine, 5 mM glutamate, 100 μM glycine.
Source text: as §1

In experiment [15] the test system is NMDAR-dependent currents in cultured hippocampal neurons (naive or overexpressing GluN2B-wt, GluN2B-G689C, GluN2B-G689S). As to the kind of experiment: Whole cell patch clamp of primary cultured hippocampal neurons. The class given is cell-based, rat. The method, then:
Cultures of hippocampal primary neurons were established as previously stated. Briefly, extracted rat neonates (P0) hippocampi were dissociated and plated onto 12 mm poly-D-lysine (Sigma-Aldrich, Cat. #P6407)- treated glass coverslips. Cultures were then maintained in an enriched growth media and grown at 37 °C and 5% CO2. Following five days in-vitro (DIV), growth medium was supplemented with 4 μM cytosine-arabinoside (ARA-C) to suppress glia proliferation. At nine DIV, neurons were co-transfected using the calcium-phosphate method with 2 different plasmids: 0.3 μg DNA of eYFP and 2 μg GluN2B-wt or GluN2B-G689C or GluN2B-G689S. To avoid recordings from cells transfected only with the fluorescent reporter, the ratio between the different plasmids during co-transfection favored the plasmids encoding GluN2B-wt/G689C/G689S. Recordings were performed four to seven days past transfection.
We patched YFP-positive neurons at 13–18 DIV. YFP was excited by X-Cite LED illuminator (Excelitas Technologies). Electrode were made by pulling glass capillaries to resistance of 5–10 MΩ. Electrodes were filled with an intracellular solution containing (in mM): 135 K-gluconate, 10 NaCl, 10 HEPES, 2 MgCl2, 2 Mg^2+-ATP, 1 EGTA, pH adjusted to 7.3 with KOH. Patch-clamp recordings were performed with Axon MultiClamp 700B amplifier and Axon Digidata 1440A acquisition system. In all experiments, recordings were performed using a 10 kHz sampling rate and low pass filter. Neurons were clamped at (-70) mV. […] Cells were recorded for ~ 3 min. For assessing the total NMDAR-dependent current (Imax), neurons were then perfused with extracellular solution (see above) supplemented with 100 μM of NMDA (Alomone labs, Cat #: N-170) for exclusive activation of NMDARs. Potentiation was assessed by perfusing cells with the extracellular solution along with 100 μM NMDA and 100 μM of PS (Cat. #P162) in 0.2% DMSO. […] Cells that didn’t reach steady-state after application of 100 μM NMDA were excluded from analysis. Extent of potentiation by PS was evaluated at steady-state.
Background: The patch-clamp technique gives a direct electrical read-out from membranes.

Experiment [16] has as its target T6, Purely wt or mixed di-heteromeric receptors containing GluN2B-subunits (Rattus norvegicus, UniProt P35439+Q00959+Q00960, A876H/F846L/G856D/H848F/K857R/M851T/M860L/Q845K/V861L).
T6 construct: expressed in transfected cells; host or cells: Xenopus laevis oocytes, mRNA injection
As to the kind of experiment: TEVC in Xenopus oocytes, wt and mixed di-heteromers. The experiment is classed as cell-based. The following applies: 100 µM PS.
Source text: as §1

The test system of experiment [17] is GluN2C- and GluN2D-containing di-heteromers. The conditions noted are these: cited from earlier work.
The subject of a further experiment is GABAA receptor. On the set-up: method as in PMID 34339523. The conditions noted are these: cited from earlier work.
In experiment [18] the target is T7, Purely di-heteromeric GluN2B-G689C (C1/C2) (Rattus norvegicus, UniProt P35439+Q00959+Q00960, A876H/F846L/G689C/G856D/H848F/K857R/M851T/M860L/Q845K/V861L).
T7 construct: expressed in transfected cells; host or cells: Xenopus laevis oocytes, mRNA injection
T7 sequence (Q00960+Q00959 fused with the stated changes, other chains not shown): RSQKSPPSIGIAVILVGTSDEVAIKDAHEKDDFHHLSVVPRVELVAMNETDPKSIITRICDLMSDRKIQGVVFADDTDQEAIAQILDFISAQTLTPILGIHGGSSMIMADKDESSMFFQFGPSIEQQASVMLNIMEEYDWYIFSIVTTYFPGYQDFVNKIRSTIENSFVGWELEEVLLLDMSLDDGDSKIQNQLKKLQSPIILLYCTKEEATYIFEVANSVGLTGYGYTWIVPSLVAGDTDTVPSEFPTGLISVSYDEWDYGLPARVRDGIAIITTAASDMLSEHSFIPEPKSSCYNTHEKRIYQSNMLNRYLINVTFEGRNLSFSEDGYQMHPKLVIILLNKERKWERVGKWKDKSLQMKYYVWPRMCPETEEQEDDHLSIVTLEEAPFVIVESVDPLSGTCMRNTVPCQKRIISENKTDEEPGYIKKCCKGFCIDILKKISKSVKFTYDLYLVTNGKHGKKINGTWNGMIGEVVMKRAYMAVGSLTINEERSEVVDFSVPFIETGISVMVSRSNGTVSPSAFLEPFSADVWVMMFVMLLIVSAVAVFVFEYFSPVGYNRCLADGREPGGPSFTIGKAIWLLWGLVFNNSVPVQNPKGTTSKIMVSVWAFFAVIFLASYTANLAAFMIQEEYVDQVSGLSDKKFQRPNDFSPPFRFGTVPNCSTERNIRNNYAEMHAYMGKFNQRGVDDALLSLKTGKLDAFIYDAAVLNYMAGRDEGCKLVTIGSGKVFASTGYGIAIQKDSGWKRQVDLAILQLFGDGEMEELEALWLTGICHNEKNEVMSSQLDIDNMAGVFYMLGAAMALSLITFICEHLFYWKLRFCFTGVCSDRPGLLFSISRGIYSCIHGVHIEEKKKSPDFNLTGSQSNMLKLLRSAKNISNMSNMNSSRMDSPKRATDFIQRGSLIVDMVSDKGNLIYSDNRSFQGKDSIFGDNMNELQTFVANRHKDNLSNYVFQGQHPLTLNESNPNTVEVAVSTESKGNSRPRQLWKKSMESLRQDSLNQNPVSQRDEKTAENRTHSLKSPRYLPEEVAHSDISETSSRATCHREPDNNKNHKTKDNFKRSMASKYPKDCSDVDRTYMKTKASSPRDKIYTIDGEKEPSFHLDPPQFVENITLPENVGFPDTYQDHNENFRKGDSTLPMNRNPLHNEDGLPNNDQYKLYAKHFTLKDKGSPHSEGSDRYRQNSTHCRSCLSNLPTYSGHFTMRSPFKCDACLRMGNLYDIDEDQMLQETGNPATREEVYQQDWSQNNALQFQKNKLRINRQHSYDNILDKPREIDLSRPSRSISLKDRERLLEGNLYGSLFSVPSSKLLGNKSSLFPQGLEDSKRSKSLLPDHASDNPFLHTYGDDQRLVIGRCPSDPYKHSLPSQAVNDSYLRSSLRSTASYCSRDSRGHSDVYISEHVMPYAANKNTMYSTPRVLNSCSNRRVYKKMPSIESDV
As to the kind of experiment: TEVC in Xenopus oocytes. The experiment is classed as cell-based.
Source text: as §1

The target of experiment [19] is T8, Purely di-heteromeric GluN2B-G689S (C1/C2) (Rattus norvegicus, UniProt P35439+Q00959+Q00960, A876H/F846L/G689S/G856D/H848F/K857R/M851T/M860L/Q845K/V861L).
T8 construct: expressed in transfected cells; host or cells: Xenopus laevis oocytes, mRNA injection
As to the kind of experiment: TEVC in Xenopus oocytes. The experiment is classed as cell-based.
Source text: as §1

T1 sequence (Q00959 23-1464, other chains not shown): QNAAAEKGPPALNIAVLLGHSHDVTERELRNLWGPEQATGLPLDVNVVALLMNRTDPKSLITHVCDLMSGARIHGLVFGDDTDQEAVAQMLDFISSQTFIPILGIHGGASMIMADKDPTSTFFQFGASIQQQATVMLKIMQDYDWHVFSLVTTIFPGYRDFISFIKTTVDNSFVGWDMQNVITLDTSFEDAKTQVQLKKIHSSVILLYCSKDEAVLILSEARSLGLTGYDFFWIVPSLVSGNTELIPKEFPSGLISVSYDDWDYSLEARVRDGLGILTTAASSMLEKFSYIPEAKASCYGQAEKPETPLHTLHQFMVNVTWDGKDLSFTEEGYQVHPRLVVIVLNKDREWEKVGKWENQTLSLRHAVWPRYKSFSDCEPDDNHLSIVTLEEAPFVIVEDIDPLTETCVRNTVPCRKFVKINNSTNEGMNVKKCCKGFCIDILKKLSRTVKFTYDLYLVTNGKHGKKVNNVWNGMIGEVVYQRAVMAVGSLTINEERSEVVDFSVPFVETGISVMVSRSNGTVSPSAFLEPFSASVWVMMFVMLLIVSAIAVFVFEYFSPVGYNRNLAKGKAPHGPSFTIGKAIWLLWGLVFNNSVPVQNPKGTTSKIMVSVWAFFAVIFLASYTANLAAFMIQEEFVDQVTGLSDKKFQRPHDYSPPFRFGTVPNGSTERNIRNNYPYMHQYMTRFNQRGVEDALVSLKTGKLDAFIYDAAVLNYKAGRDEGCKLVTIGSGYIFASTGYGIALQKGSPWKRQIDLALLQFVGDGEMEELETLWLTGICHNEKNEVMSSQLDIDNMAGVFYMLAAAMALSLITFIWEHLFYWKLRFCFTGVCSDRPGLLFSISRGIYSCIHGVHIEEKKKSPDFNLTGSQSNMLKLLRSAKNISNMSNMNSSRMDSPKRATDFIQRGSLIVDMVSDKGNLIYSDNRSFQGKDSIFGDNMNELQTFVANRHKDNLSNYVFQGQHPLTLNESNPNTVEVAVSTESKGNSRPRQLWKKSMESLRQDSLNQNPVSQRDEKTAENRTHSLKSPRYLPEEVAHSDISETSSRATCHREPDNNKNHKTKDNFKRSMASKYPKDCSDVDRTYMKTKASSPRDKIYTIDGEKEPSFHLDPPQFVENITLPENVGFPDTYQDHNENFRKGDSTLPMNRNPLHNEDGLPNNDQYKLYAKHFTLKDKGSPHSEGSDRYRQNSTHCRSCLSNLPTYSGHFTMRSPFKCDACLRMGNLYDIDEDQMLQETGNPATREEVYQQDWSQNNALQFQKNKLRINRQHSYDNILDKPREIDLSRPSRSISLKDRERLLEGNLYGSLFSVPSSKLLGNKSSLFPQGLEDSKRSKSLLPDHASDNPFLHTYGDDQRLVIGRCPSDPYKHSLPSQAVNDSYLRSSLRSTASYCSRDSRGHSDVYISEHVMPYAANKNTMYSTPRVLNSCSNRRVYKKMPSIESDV
T1 sequence (Q00960+Q00959 fused with the stated changes, other chains not shown): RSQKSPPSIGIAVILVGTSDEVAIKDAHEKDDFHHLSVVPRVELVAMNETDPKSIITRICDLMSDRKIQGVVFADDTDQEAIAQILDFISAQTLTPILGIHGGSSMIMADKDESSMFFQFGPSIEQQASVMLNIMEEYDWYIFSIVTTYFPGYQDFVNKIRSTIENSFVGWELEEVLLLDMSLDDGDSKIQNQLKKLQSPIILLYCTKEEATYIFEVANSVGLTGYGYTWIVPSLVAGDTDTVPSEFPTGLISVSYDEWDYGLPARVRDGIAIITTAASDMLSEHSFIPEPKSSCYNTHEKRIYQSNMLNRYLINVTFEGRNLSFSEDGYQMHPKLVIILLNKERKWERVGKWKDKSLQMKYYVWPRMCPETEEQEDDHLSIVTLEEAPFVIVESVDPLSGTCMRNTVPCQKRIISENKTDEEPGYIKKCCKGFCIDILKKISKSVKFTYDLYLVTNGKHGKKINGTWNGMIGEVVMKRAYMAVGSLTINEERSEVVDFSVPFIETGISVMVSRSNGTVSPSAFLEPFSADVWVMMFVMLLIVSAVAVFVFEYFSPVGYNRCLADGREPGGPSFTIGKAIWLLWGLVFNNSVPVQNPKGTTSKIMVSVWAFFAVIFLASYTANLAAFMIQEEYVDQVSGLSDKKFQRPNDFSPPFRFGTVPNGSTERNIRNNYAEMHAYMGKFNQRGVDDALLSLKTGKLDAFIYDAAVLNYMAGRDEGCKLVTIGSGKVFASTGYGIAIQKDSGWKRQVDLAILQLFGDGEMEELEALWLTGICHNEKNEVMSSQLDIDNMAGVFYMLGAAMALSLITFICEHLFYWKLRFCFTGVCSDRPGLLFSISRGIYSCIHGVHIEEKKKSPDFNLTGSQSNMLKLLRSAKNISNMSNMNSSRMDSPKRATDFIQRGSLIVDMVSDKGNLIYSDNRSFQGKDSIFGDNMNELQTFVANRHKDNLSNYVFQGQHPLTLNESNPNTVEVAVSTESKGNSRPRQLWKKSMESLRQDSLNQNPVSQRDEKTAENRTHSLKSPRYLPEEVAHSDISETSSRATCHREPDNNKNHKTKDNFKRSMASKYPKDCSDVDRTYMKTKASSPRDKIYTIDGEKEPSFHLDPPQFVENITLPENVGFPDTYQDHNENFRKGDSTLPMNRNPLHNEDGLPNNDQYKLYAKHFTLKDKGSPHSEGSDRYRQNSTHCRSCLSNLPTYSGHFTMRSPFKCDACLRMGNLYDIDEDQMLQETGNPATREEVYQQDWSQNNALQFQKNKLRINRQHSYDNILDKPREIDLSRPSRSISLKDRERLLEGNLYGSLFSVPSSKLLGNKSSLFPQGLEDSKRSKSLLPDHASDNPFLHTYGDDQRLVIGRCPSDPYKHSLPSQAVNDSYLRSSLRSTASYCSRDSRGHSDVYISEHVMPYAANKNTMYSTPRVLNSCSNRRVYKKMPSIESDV

Take `CC(C)[C@@H](O)CC[C@@H](C)[C@H]1CC[C@H]2[C@@H]3CC=C4C[C@@H](O)CC[C@]4(C)[C@H]3CC[C@]12C` [24(S)-HC, 24(S)-hydroxycholesterol]: the “effect of 24(S)-HC” value in the experiment with GABAA receptors was “no known effect”. In addition, in the experiment with all NMDAR-subtypes, the “potentiation by 24(S)-HC” value was “can potentiate all NMDAR-subtypes alike”.
As for `C[C@]12N[C@H](Cc3ccccc31)c1ccccc12` [MK-801], in experiment [1] (neurons overexpressing GluN2B-wt), the “extrasynaptic fraction (current remaining after MK-801)” value is 38%. Further, the “fraction of remaining current after MK-801” value in experiment [1] (neurons overexpressing the variants) is given as ~ 50%. In addition, in [2], the “block by MK-801” value is “efficiently and potently blocks both variant receptors”.
Take `NCCCNCCCCNCCCN` [Spermine, spermine]: the response to spermine result in experiment [3] is “poorly responsive”; in experiment [4] (200 μM spermine, pH 7.3, 5 mM glutamate), “non-responsive”; in [6] it was “inhibited”. The “inhibition by spermine (fold)” value in experiment [4] (all tri-heteromers examined, 200 μM spermine) turned out to be 0.75 fold. For the same molecule, the “Spermine Potentiation (Fold change)” value in [5] (200 μM spermine, pH 7.3) was 0.73 ± 0.02 (N = 2, n = 12) Fold change; in experiment [7] (200 μM spermine, pH 7.3) it was 0.70 ± 0.03 n.s (N = 1, n = 10) Fold change; in [8] (200 μM spermine, pH 7.3) it was 0.75 ± 0.02 n.s (N = 2, n = 19) Fold change; in [9] (200 μM spermine, pH 7.3), 1.97 ± 0.56 (N = 3, n = 25) Fold change; in experiment [10] (200 μM spermine, pH 7.3), 1.61 ± 0.03 (N = 2, n = 24) Fold change; in experiment [11] (200 μM spermine, pH 7.3), 1.78 ± 0.51 (N = 2, n = 20) Fold change.
Consider `CC(C(O)c1ccc(O)cc1)N1CCC(Cc2ccccc2)CC1` (stereo not drawn) [ifenprodil], for which the figures for the “expected inhibition by ifenprodil” value (in experiment [12]; with GluN2B di-heteromers; in [13]) were < 10%, ~ 85% and < 40%, respectively.
With `Cc1cc2c(s1)Nc1ccccc1N=C2N1CCN(C)CC1` [olanzapine], the “direct effect of olanzapine on NMDAR currents” value in [14] is reported as “no evidence for any direct effect”.
In the case of pregnenolone-sulfate [PS], the “potentiation by PS (fold increase)” value in experiment [4] (100 µM PS, all tri-heteromeric types, wt or GluN2B variants) is on record as “~ twofold”; in experiment [16], “~ threefold”; in experiment [18] (100 µM PS), “~ fourfold”; in experiment [19] (100 µM PS) it was “~ fivefold”. Also, the “effect of PS on Imax” value in experiment [15] (100 μM PS with 100 μM NMDA, 50 μM glycine, all groups) was “increased Imax of neurons from all groups”. In addition, the “effect of PS on NMDAR-current without added NMDA” value in [15] (100 μM PS, no NMDA added) is “enhanced the overall NMDAR-current”. Besides, the “extent of potentiation (fold) by PS” value in [15] (100 μM PS, neurons overexpressing the variants vs naive or GluN2B-wt) was “significantly larger”. Also, the “PS Potentiation (Fold change)” value was 1.87 ± 0.04 (N = 4, n = 30) Fold change in experiment [5] (100 μM PS); 2.12 ± 0.10 n.s (N = 3, n = 13) Fold change in experiment [7] (100 μM PS); 2.02 ± 0.06 n.s (N = 2, n = 13) Fold change in experiment [8] (100 μM PS); 3.03 ± 0.13 (N = 3, n = 16) Fold change in experiment [9] (100 μM PS); 3.96 ± 0.14 (N = 3, n = 18) Fold change in [18] (100 μM PS, 5 mM glutamate); 2.99 ± 0.10 n.s (N = 3, n = 20) Fold change in experiment [10] (100 μM PS). Besides, the “PS Potentiation (Fold change)” value is 4.68 ± 0.19 (N = 3, n = 23) Fold change in experiment [19] (100 μM PS, 5 mM glutamate) and 2.78 ± 0.15 n.s. (N = 3, n = 13) Fold change in experiment [11] (100 μM PS). Further, the “mode of action of PS” value (in experiment [17]; in the experiment on GABAA receptor) was “negative allosteric modulator (NAM)” in each case.
